Legend:
Format in all cases: in vivo, C57BL/6 male mice
[1] = system: MC38 colorectal cancer cell line; experiment: Tumor weight of mice after MC38 injection and drug administration; settings: MC38 model, 7 days; statistically proved by one-way ANOVA
Experimental: (§1) MC-38 colorectal cancer cells (5×10^5 cells) were injected subcutaneously into 7-week-old C57BL/6 male mice. Seven days after the colorectal cancer cells were injected, the average tumor volume of the subcutaneous MC-38 tumor was about 40 mm^3. The injection method of the mouse tumor as described above was equally applied to all four groups below. Afterwards, the experimental group was divided into the vehicle administration control group, SAC-1004 and anti-PD1 co-administration group, SAC-1004 single administration group, and anti-PD1 single administration group, and the experiment was performed.
(§2) Specifically, the administration was performed as follows. SAC-1004, a vascular leak inhibitor, was dissolved in DMSO in PBS, and 1 mg per kg of mouse body weight was administered daily by intravenous injection. Anti-PD1, an immune checkpoint inhibitor, was administered at the concentration of 200 ng/mouse by intraperitoneal injection 3 times a week along with 200 ng of rat igG2a. […]
(§3) In a total of 4 groups consisting of control group, SAC-1004 and anti-PD1 co-administration group, SAC-1004 single administration group, and anti-PD1 single administration group, the tumor weight of mice treated with the drug for 7 days as described above in the experimental animal model was analyzed.

[2] = Spleen size and weight of mice after MC38 injection and drug administration; settings: MC38 model, 7 days; not statistically significant by one-way ANOVA
Experimental: as §1, §2
as §3, with “spleen size” for “tumor weight”

[3] = system: MC38 colorectal cancer cell line; experiment: Tumor size change in mice after MC38 colorectal cancer cell line injection and drug administration; settings: subcutaneous MC-38 tumor, drug administration for 7 days; statistically proved by two-way ANOVA
Experimental: as §1, §2
as §3, with “size changes according to” for “weight of mice treated with”, “drug administration” for “drug”, “were” for “was”

VE-cadherin = experiment: Adherent junction expression in mouse tumor (IHC staining); settings: drug administered for 14 days
Experimental: as §1
Specifically, the administration was performed as follows. SAC-1004, a vascular leak inhibitor, was dissolved in DMSO in PBS, and 1 mg per kg of mouse body weight was administered daily by intravenous injection. […]
In a total of 4 groups consisting of control group, SAC-1004 and anti-PD1 co-administration group, SAC-1004 single administration group, and anti-PD1 single administration group, the expression of adherent junction in the tumor of the mouse treated with the drug as described above in the experimental animal model was analyzed except that the drug was administered for 14 days by daily administration of SAC-1004 for 7 days and administration of anti-PD1 3 times a week. […]

## COC(=O)CCC/C=C(\C)[C@H]1CCC2C3CC=C4C[C@@H](OC5C=C[C@H](OC(C)=O)[C@@H](COC(C)=O)O5)CC[C@]4(C)C3CC[C@@]21C (stereo partly shown) [SAC-1004]
[1]
  tumor weight: lower than that of the anti-PD1 single administration group mice
[2]
  spleen weight: higher than that of the control group mice
[3]
  tumor size: reduced compared to that in the control group
VE-cadherin
  ratio of intratumoral VE-cadherin: increased
